# According to patent publication US7071167B2 (L'Oreal, priority 2002, dated 2006):
# “And” between values parts separate entries of the source, which are not always exact repeats. Equal entries are not always repeated.
# Test system: Ca^2+ channel (L, verapamil site)
# Experiment: Equilibrium binding competition on type-L calcium channels, verapamil site ([3H](-)D 888 displacement)
# Set-up: species or system rat
# Details: for Mean % of binding / % of binding / Mean % of inhibition: Argireline 1.0%, magnesium gluconate 1 × 10^−4 M, combination 1 × 10^−4 M/1.0%; for % of binding: individual determinations, specific binding of 0.5 nM (3H)(-)D 888, rat cerebral cortex homogenates; for Mean % of inhibition: inhibition of specific binding
# Method: The studies were performed using rat cerebral cortex homogenates (isolated membranes having type-L calcium channels at their surface).
# The principle of an equilibrium displacement experiment includes measuring the specific binding at equilibrium, of a given concentration of radiolabelled ligand in the presence of a variable and increasing concentration of cold ligand. The cold ligand enters into competition with the radioactive ligand for its binding to the receptor; this is why this may be termed binding competition at equilibrium.
# The experimental conditions according to the protocol described by Reynolds, I. J. et al., J. Pharmacol. Exp. Ther., vol. 237, p.
# D 888 and D 600 are the reference molecules specific for the type-L calcium channels, verapamil site.
# The specific binding of a ligand (labelled D 888) to the receptors (type-L calcium channels, verapamil site) is defined as the difference between the total binding and the […] determined in the presence of an excess of cold ligand. The results are expressed as a percentage of specific binding and as a percentage of inhibition of specific binding in the presence of the test compounds (Argireline®).
Substance,Mean % of binding [%],mean percentage of inhibition (Argireline at 5%) [%],mean percentage of inhibition (Argireline at 10%) [%],% of binding,Mean % of inhibition [%],"effect on the type-L calcium channels, verapamil site (in words) (used alone at concentrations of 1×10^−6 M to 1×10^−4 M)"
"Acetyl glutamyl-glutamyl-methionyl-glutaminyl-arginyl-arginylamide (Ac-EEMQRR-NH2) [Argireline ®, supplied at 0.05% in water]",96.1,36,52,95.1% and 93.1% and 99.9%,4,
Magnesium gluconate,94.0,,,93.8% and 95.2% and 93.0%,6,moderate effects
